According to patent publication US8232296B2, “Salt 628” (Astrazeneca AB, priority 2009, dated 2012):
Where a name gives a salt, the structure may show the parent alone.

Experiments:
[1] = molecular target: T1, Human Neutrophil Elastase (HNE) (Homo sapiens, UniProt P08246); test: Human Neutrophil Elastase Quenched-FRET assay; format: biochemical; details: free base dissolved in DMSO; n=26; read-out: IC50 for inhibition of human neutrophil elastase activity
T1 construct: Human Neutrophil Elastase (HNE) purified from serum (Calbiochem art. 324681); purchased Calbiochem 324681; host or cells: purified from serum (so in the source); natural human source, not recombinant
T1 sequence (P08246 30-247 limits assumed): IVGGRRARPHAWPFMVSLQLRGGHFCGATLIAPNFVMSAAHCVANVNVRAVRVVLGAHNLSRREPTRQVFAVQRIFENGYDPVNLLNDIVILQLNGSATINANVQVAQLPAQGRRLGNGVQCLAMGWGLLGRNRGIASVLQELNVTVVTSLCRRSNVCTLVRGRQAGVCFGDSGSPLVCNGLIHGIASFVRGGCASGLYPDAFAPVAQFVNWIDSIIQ
Procedure: The assay uses Human Neutrophil Elastase (HNE) purified from serum (Calbiochem art. 324681; Ref. Baugh, R. J. et al., 1976, Biochemistry. 15, 836-841). […] The protease substrate used was Elastase Substrate V Fluorogenic, MeOSuc-AAPV-AMC (Calbiochem art. 324740; Ref. Castillo, M. J. et al., 1979, Anal. Biochem. 99, 53-64). The substrate was stored in dimethyl sulfoxide (DMSO) at −20° C. The assay additions were as follows: Test compounds and controls were added to black 96-well flat-bottom plates (Greiner 655076), 1.0 μL in 100% DMSO, followed by 30 μL HNE in assay buffer with 0.01% Triton (trade mark) X-100 detergent. The assay buffer constitution was: 100 mM Tris(hydroxymethyl)aminomethane (TRIS) (pH 7.5) and 500 mM NaCl. The enzyme and the compounds were incubated at room temperature for 15 minutes. Then 30 μl substrate in assay buffer was added. The assay was incubated for 30 minutes at room temperature. The concentrations of HNE enzyme and substrate during the incubation were 1.7 nM and 100 μM, respectively. The assay was then stopped by adding 60 μl stop solution (140 mM acetic acid, 200 mM sodium monochloroacetate, 60 mM sodium acetate, pH 4.3). Fluorescence was measured on a Wallac 1420 Victor 2 instrument at settings: Excitation 380 nm, Emission 460 nm. IC50 values were determined using Xlfit curve fitting using model 205.

[2] = Solubility of salts of compound (I) after 1 hour in 0.1 M HCl (Zymark Multidose G3, UV 337 nm); details: after 1 hour in 900 ml of 0.1 M HCl, 75 rpm, 37° C.
Procedure: The solubility (mg/ml) shown in Table 1 was measured after 1 hour in 900 ml of 0.1 M HCl and at 75 rpm and 37° C. using a Zymark Multidose G3 system. Analysis was made by UV spectrophotometer with a detection wavelength of 337 nm.

[3] = Oral bioavailability study in the dog; format: in vivo, Beagle dogs; details: Beagle, plasma
Procedure: Beagle dogs (three dogs for each formulation) were administered orally with Compound (I) tosylate form A (dose equivalent to 1.0 mg/kg compound (I) free base) in a gelatine capsule or an aqueous suspension of 0.8 mg/kg crystalline compound (I) free base suspended in water together with 1.2% w/w Avicel and 0.1% w/w Polysorbate 80.
Accordingly the bioavailability of compound (I) tosylate Form A was about 3 times higher than the free base.

[4] = Solid state stability study (LC and XRPD); format: physicochemical
Procedure: The solid state stability of compound (I) tosylate Form A was studied under four sets of conditions: at 25° C./desiccated; at 25° C./60% relative humidity (RH); 40° C./75% RH and 60° C./75% RH. Samples were examined (LC and XRPD) after 4, 8 and 12 weeks and chemical and physical stability were evaluated. […] It was concluded that compound (I) tosylate Form A has excellent and advantageous chemical and physical stability in the solid state under pharmaceutically relevant storage conditions.

[5] = Solubility of compound (I) tosylate in various dissolution media with time; format: physicochemical; details: thermodynamic from solid, 37° C.
Text: Therefore compound (I) tosylate is expected to improve the aqueous solubility of compound (I) for a sufficient period of time to allow enhanced absorption in man. Without wishing to be limited by theory, the enhanced solubility of compound (I) tosylate may arise from a combination of the inherent higher solubility of the compound (I) tosylate, and a continued high solubility when the compound (I) precipitates from solution as amorphous material, in aqueous media. The observed improved solubility may therefore reflect both the solubility of the amorphous material and the solubility of the compound (I) tosylate, which will be present in-vivo in varying ratios following oral administration of compound (I) tosylate as a result of the kinetic balance between dissolution and precipitation of compound (I). […] In Table 2, the columns marked “modification” refer to the form of the solid present in the dissolution medium at the relevant time point indicated. The data in Table 2 indicate that the solubility remains high for at least 3 hours, particularly at low pH, representative of the pH found in the stomach.
Solubility was determined in 0.1 M HCl at pH 1.0, 0.2 M phosphate buffer at pH 3, 0.2 M phosphate buffer at pH 5.0, 0.2 M phosphate buffer at pH 6.5 and 0.2 M phosphate buffer at pH 8.
Typically about 4 mg of test sample was added to a 1 ml Scantec glass tube. The experiment was started on addition of 800 μl of preheated test media using an automated Tecon robot system (Genesis Freedom 150). Incubation was at 37° C., in a thermoblock, shaken at 600 rpm. Samples were withdrawn after 1 hour, 3 hours and 24 h, triplicate samples for each media. The supernatant liquid was withdrawn from samples and filtered using a Whatman GF/B filter and diluted prior to analysis by LC (Agilent 1100 series with X Terra MSC18 column). The remaining solid in the sample tubes was characterised using XRPD.

[6] = Humidity sorption by gravimetrical vapour sorption (GVS); format: physicochemical; details: at 80% relative humidity (RH)
Procedure: As such, compound (I) tosylate Form A is right at the border between slightly hygroscopic and non hygroscopic, according to the criteria defined in the European Pharmacopoeia.
The gravimetric responses of test samples to changes in humidity were investigated using a SGA 100 (VTI Corporation) Gravimetrical Vapour Sorption (GVS) instrument with the following features:
Dry to 90% RH and back, in steps of, for example, 10% RH.
Equilibrium condition: <0.01 weight-% per 10 minutes (<0.001 weight-%/min)
Approximately 5 mg of the test sample was placed in the cup and evaluated.

[7] = Dissolution in 900 ml of 0.1 M HCl (pH 1), USP apparatus 2; format: physicochemical; details: 79 mg (corresponding to 60 mg free base) alone in a capsule; 900 ml 0.1 M HCl, 75 rpm, 37° C.
Procedure: […] The dissolution was measured in 900 ml of 0.1 M HCl (pH 1) and using a USP dissolution apparatus 2 (paddle) at 75 rpm and 37° C. in a fully automated system, Zymark Multidose G3.
The dissolution profile of tablet formulations A and B in Table 7 were determined in 900 ml of 0.1 M HCl (pH 1) and using a USP dissolution apparatus 2 (paddle) at 75 rpm and 37° C. in a fully automated system, Zymark Multidose G3.

Structure (SMILES): Cc1c(-c2ccnn2C)cc(C(=O)NCc2ccc(S(C)(=O)=O)cn2)c(=O)n1-c1cccc(C(F)(F)F)c1 [compound (I), 6-methyl-5-(1-methyl-1H-pyrazol-5-yl)-N-{[5-(methylsulfonyl)pyridin-2-yl]methyl}-2-oxo-1-[3-(trifluoromethyl)phenyl]-1,2-dihydropyridine-3-carboxamide]
- IC50 [1]: 12 nM
- Solubility ([2]; listed as Compound (I) free base): 0.040 mg/mL
- bioavailability ([3]; aqueous suspension of 0.8 mg/kg crystalline free base (1.2% w/w Avicel, 0.1% w/w Polysorbate 80)): ~12%

Structure (SMILES): Cc1c(-c2ccnn2C)cc(C(=O)NCc2ccc(S(C)(=O)=O)cn2)c(=O)n1-c1cccc(C(F)(F)F)c1 [compound (I) tosylate Form A, 6-methyl-5-(1-methyl-1H-pyrazol-5-yl)-N-{[5-(methylsulfonyl)pyridin-2-yl]methyl}-2-oxo-1-[3-(trifluoromethyl)phenyl]-1,2-dihydropyridine-3-carboxamide 4-methylbenzenesulfonate]
- solid state chemical and physical stability ([4]; 25° C./desiccated, 25° C./60% RH, 40° C./75% RH, after 4, 8 and 12 weeks): no significant chemical or physical changes were observed
- solid state chemical and physical stability ([4]; stressed 60° C./75% RH condition, 4, 8 and 12 weeks): some potential chemical degradation
- solubility at 1 h ([5]; aqueous buffer, 0.2 M Phosphate buffer pH 3.0, 1 h): 493 ± 97 µM
- solubility at 3 h ([5]; aqueous buffer, 0.2 M Phosphate buffer pH 3.0, 3 h): 492 ± 115 µM
- solubility at 24 h ([5]; aqueous buffer, 0.2 M Phosphate buffer pH 3.0, 24 h): 11.8 ± 0.9 µM
- solubility at 1 h ([5]; aqueous buffer, 0.2 M Phosphate buffer pH 5.0, 1 h): 490 ± 42 µM
- solubility at 3 h ([5]; aqueous buffer, 0.2 M Phosphate buffer pH 5.0, 3 h): 460 ± 54 µM
- solubility at 24 h ([5]; aqueous buffer, 0.2 M Phosphate buffer pH 5.0, 24 h): 12.2 ± 0.6 µM
- solubility at 1 h ([5]; aqueous buffer, 0.2 M Phosphate buffer pH 6.5, 1 h): 416 ± 48 µM
- solubility at 3 h ([5]; aqueous buffer, 0.2 M Phosphate buffer pH 6.5, 3 h): 363 ± 86 µM
- solubility at 24 h ([5]; aqueous buffer, 0.2 M Phosphate buffer pH 6.5, 24 h): 10.1 ± 0.8 µM
- solubility at 1 h ([5]; aqueous buffer, 0.2 M Phosphate buffer pH 8, 1 h): 412 ± 29 µM
- solubility at 3 h ([5]; aqueous buffer, 0.2 M Phosphate buffer pH 8, 3 h): 240 ± 35 µM
- solubility at 24 h ([5]; aqueous buffer, 0.2 M Phosphate buffer pH 8, 24 h): 8.4 ± 0.7 µM
- solubility at 1 h ([5]; simulated gastric fluid, 0.1 M HCl pH 1.0, 1 h): 1530 ± 129 µM
- solubility at 3 h ([5]; simulated gastric fluid, 0.1 M HCl pH 1.0, 3 h): 1100 ± 145 µM
- solubility at 24 h ([5]; simulated gastric fluid, 0.1 M HCl pH 1.0, 24 h): 58.4 ± 1.2 µM
- Solubility ([2]; 4-methylbenzenesulfonate): 1.2 mg/mL
- humidity uptake [6]: around 0.2%
- bioavailability ([3]; gelatine capsule, dose equivalent to 1.0 mg/kg compound (I) free base): ~38%
- dissolved within 30 minutes [7]: < 65%
